Measured values as given in US11028064B2, “Tricyclic heterocyclic derivatives and uses thereof” (AUCKLAND UNISERVICES LIMITED, priority 2016, dated 2021).

Assays:
CSF-1R (FMS) = CSF-1R (FMS) (Homo sapiens (Human), UniProt P07333); test: SelectScreen Z'-LYTE kinase assay, Assay 336 for CSF-1R (FMS); format: biochemical; details: Z'-LYTE activity assay, 500 μM ATP (Km app); read-out: CSF-1R Enzyme IC50
KDR (VEGFR2) = KDR (VEGFR2) (Homo sapiens (Human), UniProt P35968); test: SelectScreen Z'-LYTE kinase assay, Assay 540 for KDR (VEGFR2); format: biochemical; details: Z'-LYTE activity assay, 75 μM ATP (Km app); read-out: VEGFR2 Enzyme IC50
Chain of KDR (VEGFR2) (P35968 20-1356): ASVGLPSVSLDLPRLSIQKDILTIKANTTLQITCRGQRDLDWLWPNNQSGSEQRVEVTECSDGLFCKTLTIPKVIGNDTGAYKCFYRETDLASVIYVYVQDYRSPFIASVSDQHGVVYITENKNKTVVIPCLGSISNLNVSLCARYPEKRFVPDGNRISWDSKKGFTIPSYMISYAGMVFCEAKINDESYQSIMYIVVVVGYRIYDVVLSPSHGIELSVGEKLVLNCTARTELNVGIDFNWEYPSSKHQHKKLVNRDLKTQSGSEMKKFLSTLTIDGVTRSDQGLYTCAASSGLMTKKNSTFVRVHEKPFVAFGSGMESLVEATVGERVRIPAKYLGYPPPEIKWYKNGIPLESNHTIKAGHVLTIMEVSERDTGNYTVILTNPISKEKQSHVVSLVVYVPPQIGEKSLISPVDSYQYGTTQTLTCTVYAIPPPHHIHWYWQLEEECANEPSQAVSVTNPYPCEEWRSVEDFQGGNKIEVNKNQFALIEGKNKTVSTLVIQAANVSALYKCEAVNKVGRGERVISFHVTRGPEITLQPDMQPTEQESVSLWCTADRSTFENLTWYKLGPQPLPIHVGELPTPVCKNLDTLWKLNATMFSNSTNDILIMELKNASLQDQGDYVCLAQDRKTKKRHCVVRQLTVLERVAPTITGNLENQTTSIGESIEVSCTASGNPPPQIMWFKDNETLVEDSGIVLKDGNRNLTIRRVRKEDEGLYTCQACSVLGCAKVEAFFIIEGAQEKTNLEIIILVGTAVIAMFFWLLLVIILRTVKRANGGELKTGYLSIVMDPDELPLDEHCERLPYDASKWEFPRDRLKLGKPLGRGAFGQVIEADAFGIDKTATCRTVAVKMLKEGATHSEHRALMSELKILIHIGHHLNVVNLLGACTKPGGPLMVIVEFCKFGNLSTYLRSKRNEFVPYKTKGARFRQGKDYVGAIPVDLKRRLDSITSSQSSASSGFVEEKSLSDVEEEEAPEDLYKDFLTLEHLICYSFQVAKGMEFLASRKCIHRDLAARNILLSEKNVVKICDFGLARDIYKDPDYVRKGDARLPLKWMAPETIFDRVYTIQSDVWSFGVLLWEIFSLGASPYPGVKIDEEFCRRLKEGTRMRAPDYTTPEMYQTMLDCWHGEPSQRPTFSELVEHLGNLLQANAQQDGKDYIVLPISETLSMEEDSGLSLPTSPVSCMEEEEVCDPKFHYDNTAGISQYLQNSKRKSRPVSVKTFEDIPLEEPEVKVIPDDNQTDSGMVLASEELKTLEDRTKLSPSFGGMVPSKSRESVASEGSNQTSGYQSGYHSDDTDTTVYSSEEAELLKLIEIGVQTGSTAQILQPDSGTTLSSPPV

Chain of CSF-1R (FMS) (P07333 20-972): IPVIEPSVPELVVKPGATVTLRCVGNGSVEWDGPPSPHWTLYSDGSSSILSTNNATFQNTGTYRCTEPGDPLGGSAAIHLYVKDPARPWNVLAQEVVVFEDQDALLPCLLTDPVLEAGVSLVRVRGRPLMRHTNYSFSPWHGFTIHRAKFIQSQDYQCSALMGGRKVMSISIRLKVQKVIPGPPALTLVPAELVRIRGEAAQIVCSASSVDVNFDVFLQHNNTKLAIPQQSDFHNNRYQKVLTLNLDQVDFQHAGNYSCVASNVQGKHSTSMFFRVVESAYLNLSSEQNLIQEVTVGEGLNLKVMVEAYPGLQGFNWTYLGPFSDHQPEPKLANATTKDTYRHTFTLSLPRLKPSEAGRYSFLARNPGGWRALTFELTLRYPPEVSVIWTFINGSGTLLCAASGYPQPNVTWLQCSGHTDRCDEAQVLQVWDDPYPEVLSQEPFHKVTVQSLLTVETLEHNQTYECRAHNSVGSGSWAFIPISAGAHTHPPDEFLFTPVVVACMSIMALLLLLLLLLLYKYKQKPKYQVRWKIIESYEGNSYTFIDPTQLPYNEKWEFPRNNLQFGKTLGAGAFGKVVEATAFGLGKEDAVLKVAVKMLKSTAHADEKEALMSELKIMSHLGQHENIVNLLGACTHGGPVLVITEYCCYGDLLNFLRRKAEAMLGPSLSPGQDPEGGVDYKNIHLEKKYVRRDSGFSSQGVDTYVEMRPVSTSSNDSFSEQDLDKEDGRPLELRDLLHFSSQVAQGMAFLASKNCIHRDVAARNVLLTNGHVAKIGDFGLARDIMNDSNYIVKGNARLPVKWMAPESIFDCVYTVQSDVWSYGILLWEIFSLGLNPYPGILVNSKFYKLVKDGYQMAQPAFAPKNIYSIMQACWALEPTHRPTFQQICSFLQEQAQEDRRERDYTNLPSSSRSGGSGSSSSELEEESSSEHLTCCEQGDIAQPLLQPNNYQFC

Row | IC50 (CSF-1R (FMS)) [nM] | IC50 (KDR (VEGFR2)) [nM] | SMILES
1 | < 100 | 1000 to 10000 | Cc1cc(OCCN(C)C)c2oc3cc(Sc4ccc(CCC(=O)NC5CCCC5)nc4)ccc3c(=O)c2c1 [Example 43, N-Cyclopentyl-3-(5-((5-(2-(dimethylamino)ethoxy)-7-methyl-9-oxo-9H-xanthen-3-yl)thio)pyridin-2-yl)propanamide]
2 | < 100 | 1000 to 10000 | Cc1cc(OCCN(C)C)cc2c(=O)c3ccc(Oc4ccc(CCC(=O)NC5CCCC5)nc4)cc3oc12 [Example 45, N-Cyclopentyl-3-(5-((7-(2-(dimethylamino)ethoxy)-5-methyl-9-oxo-9H-xanthen-3-yl)oxy)pyridin-2-yl)propanamide]
3 | < 100 | > 10000 | CNCCOc1cc(C)cc2c(=O)c3ccc(Oc4ccc(CCC(=O)NC5CCCC5)nc4)cc3oc12 [Example 29, N-Cyclopentyl-3-(5-((7-methyl-5-(2-(methylamino)ethoxy)-9-oxo-9H-xanthen-3-yl)oxy)pyridin-2-yl)propanamide]
4 | 100 to 1000 | > 10000 | Cc1cc(OCCN(C)C)c2oc3cc(Oc4cccnc4)ccc3c(=O)c2c1 [Example 53, 4-(2-(Dimethylamino)ethoxy)-2-methyl-6-(pyridin-3-yloxy)-9H-xanthen-9-one]
5 | < 100 | > 10000 | COc1cc(Oc2ccc3c(=O)c4cc(C)cc(OCCN(C)C)c4oc3c2)cnc1OC [Example 9, 6-((5,6-Dimethoxypyridin-3-yl)oxy)-4-(2-(dimethylamino)ethoxy)-2-methyl-9H-xanthen-9-one]
6 | < 100 | > 10000 | Cc1cc(OCCN(C)C)c2oc3cc(Oc4ccc(NCC(=O)NC5CCCC5)nc4)ccc3c(=O)c2c1 [Example 25, N-Cyclopentyl-2-((5-((5-(2-(dimethylamino)ethoxy)-7-methyl-9-oxo-9H-xanthen-3-yl)oxy)pyridin-2-yl)amino)acetamide]
7 |  | 1000 to 10000 | Cc1cc(OCCN(C)C)c2oc3cc(Oc4cccc(C(=O)Nc5ccccc5)c4)ccc3c(=O)c2c1 [Example 5, 3-((5-(2-(Dimethylamino)ethoxy)-7-methyl-9-oxo-9H-xanthen-3-yl)oxy)-N-phenyl-benzamide]
8 | < 100 | > 10000 | Cc1cc(OCCN2C[C@@H](C)N(C)[C@@H](C)C2)c2oc3cc(Oc4ccc(CCC(=O)NC5CCCC5)nc4)ccc3c(=O)c2c1 [Example 62, N-Cyclopentyl-3-(5-((7-methyl-9-oxo-5-(2-((3S,5R)-3,4,5-trimethylpiperazin-1-yl)ethoxy)-9H-xanthen-3-yl)oxy)pyridin-2-yl)propanamide]
9 | < 100 | 1000 to 10000 | Cc1cc(OCCCN2CCN(C(C)C)CC2)c2oc3cc(Oc4ccc(CCC(=O)NC5CCCC5)nc4)ccc3c(=O)c2c1 [Example 66, N-Cyclopentyl-3-(5-((5-(3-(4-isopropylpiperazin-1-yl)propoxy)-7-methyl-9-oxo-9H-xanthen-3-yl)oxy)pyridin-2-yl)propanamide]
10 | 100 to 1000 | 1000 to 10000 | Cc1cc(OCCC2CCN(C)CC2)c2oc3cc(Oc4ccccc4)ccc3c(=O)c2c1 [Example 36, 2-Methyl-4-(2-(1-methylpiperidin-4-yl)ethoxy)-6-phenoxy-9H-xanthen-9-one]
11 | 100 to 1000 | > 10000 | COc1ccc(Cc2ccc3c(=O)c4cc(C)cc(OCCN(C)C)c4oc3c2)cn1 [Example 19, 4-(2-(Dimethylamino)ethoxy)-6-((6-methoxypyridin-3-yl)methyl)-2-methyl-9H-xanthen-9-one]
12 |  | 1000 to 10000 | Cc1cc(OC2CCN(C)CC2)c2oc3cc(Oc4ccc(CCC(=O)NC5CCCC5)nc4)ccc3c(=O)c2c1 [Example 71, N-Cyclopentyl-3-[5-({7-methyl-5-[(1-methyl-4-piperidinyl)oxy]-9-oxo-9H-xanthen-3-yl}oxy)-2-pyridinyl]propanamide]
13 | < 100 | 1000 to 10000 | CN(C)CCOc1cccc2c(=O)c3ccc(Oc4cccc(C(=O)Nc5ccccc5)c4)cc3oc12 [Example 2, 3-({5-[2-(Dimethylamino)ethoxy]-9-oxo-9H-xanthen-3-yl}oxy)-N-phenylbenzamide]
14 | < 100 | > 10000 | Cc1cc(OCCN(C)C)c2oc3cc(Oc4ccc(NCc5ccc(OC(F)(F)F)cc5)nc4)ccc3c(=O)c2c1 [Example 15, 4-(2-(Dimethylamino)ethoxy)-2-methyl-6-((6-((4-(trifluoromethoxy)benzyl)amino)-pyridin-3-yl)oxy)-9H-xanthen-9-one]
15 | 100 to 1000 | > 10000 | Cc1cc(OCCN(C)C)c2oc3cc(Oc4ccc(N)nc4)ccc3c(=O)c2c1 [Example 17, 6-((6-Aminopyridin-3-yl)oxy)-4-(2-(dimethylamino)ethoxy)-2-methyl-9H-xanthen-9-one]
16 | < 100 |  | Cc1cc(OCCN(C)C)c2oc3cc(Oc4ccc(CCC(=O)NC5CCCC5)nc4)ccc3c(=O)c2c1 [Example 22, N-Cyclopentyl-3-(5-((5-(2-(dimethylamino)ethoxy)-7-methyl-9-oxo-9H-xanthen-3-yl)-oxy)pyridin-2-yl)propanamide]
17 | < 100 |  | COc1ccc(COc2ccc(Oc3ccc4c(=O)c5cc(C)cc(OCCN(C)C)c5oc4c3)cn2)cc1 [Example 10, 4-(2-(Dimethylamino)ethoxy)-6-((6-((4-methoxybenzyl)oxy)pyridin-3-yl)oxy)-2-methyl-9H-xanthen-9-one]
18 | 100 to 1000 | > 10000 | COc1ccc(Oc2ccc3c(=O)c4cc(C)cc(OCCN(C)C)c4oc3c2)cn1 [Example 8, 4-(2-(Dimethylamino)ethoxy)-6-((6-methoxypyridin-3-yl)oxy)-2-methyl-9H-xanthen-9-one]
19 | 100 to 1000 |  | Cc1cc(OCC2CCN(C)CC2)c2oc3cc(Oc4ccccc4)ccc3c(=O)c2c1 [Example 35, 2-Methyl-4-((1-methylpiperidin-4-yl)methoxy)-6-phenoxy-9H-xanthen-9-one]
20 | < 100 |  | COc1ccc(COc2ccc(Oc3ccc4c(=O)c5cc(C)cc(OCCN(C)C)c5oc4c3)cn2)cn1 [Example 11, 4-(2-(Dimethylamino)ethoxy)-6-((6-((6-methoxypyridin-3-yl)methoxy)pyridin-3-yl)oxy)-2-methyl-9H-xanthen-9-one]
21 | 100 to 1000 | > 10000 | Cc1cc(OCCCN2CCOCC2)c2oc3cc(Oc4ccccc4)ccc3c(=O)c2c1 [Example 33, 2-Methyl-4-(3-morpholinopropoxy)-6-phenoxy-9H-xanthen-9-one]
22 | 100 to 1000 | 1000 to 10000 | Cc1cc(OCCCN(C)C)c2oc3cc(Oc4ccccc4)ccc3c(=O)c2c1 [Example 30, 4-[3-(Dimethylamino)propoxy]-2-methyl-6-phenoxy-9H-xanthen-9-one]
23 | < 100 |  | CN(C)CCOc1ccc2oc3cc(Oc4ccc(CCC(=O)NC5CCCC5)nc4)ccc3c(=O)c2c1 [Example 44, N-Cyclopentyl-3-(5-((7-(2-(dimethylamino)ethoxy)-9-oxo-9H-xanthen-3-yl)oxy)-pyridin-2-yl)propanamide]
24 | < 100 |  | Cc1cc(OCCN(C)C)c2oc3cc(Oc4ccc(CCNC(=O)C5CCCC5)nc4)ccc3c(=O)c2c1 [Example 26, N-(2-(5-((5-(2-(Dimethylamino)ethoxy)-7-methyl-9-oxo-9H-xanthen-3-yl)oxy)pyridin-2-yl)ethyl)cyclopentanecarboxamide]
25 | < 100 |  | Cc1cc(OCCCN2[C@H](C)CCC[C@@H]2C)c2oc3cc(Oc4ccc(CCC(=O)NC5CCCC5)nc4)ccc3c(=O)c2c1 [Example 64, N-Cyclopentyl-3-(5-((5-(3-((2R,6S)-2,6-dimethylpiperidin-1-yl)propoxy)-7-methyl-9-oxo-9H-xanthen-3-yl)oxy)pyridin-2-yl)propanamide]
26 | < 100 |  | COc1ccc(CCc2ccc(Oc3ccc4c(=O)c5cc(C)cc(OCCN(C)C)c5oc4c3)cn2)cc1 [Example 18, 4-(2-(Dimethylamino)ethoxy)-6-((6-(4-methoxyphenethyl)pyridin-3-yl)oxy)-2-methyl-9H-xanthen-9-one]
27 | < 100 |  | Cc1cc(OCCN(C)C)c2sc3cc(Oc4cccc(C(=O)Nc5ccccc5)c4)ccc3c(=O)c2c1 [Example 49, 3-((5-(2-(Dimethylamino)ethoxy)-7-methyl-9-oxo-9H-thioxanthen-3-yl)oxy)-N-phenylbenzamide]

Row | SMILES | IC50 (CSF-1R (FMS)) [nM] | IC50 (KDR (VEGFR2)) [nM]
28 | Cc1cc(OCCCCN(C)C)c2oc3cc(Oc4ccccc4)ccc3c(=O)c2c1 [Example 34, 4-(4-(Dimethylamino)butoxy)-2-methyl-6-phenoxy-9H-xanthen-9-one] | 100 to 1000 | 1000 to 10000
29 | Cc1cc(OCCN2CCN(CC(F)(F)F)CC2)c2oc3cc(Oc4ccc(CCC(=O)NC5CCCC5)nc4)ccc3c(=O)c2c1 [Example 59, N-Cyclopentyl-3-(5-((7-methyl-9-oxo-5-(2-(4-(2,2,2-trifluoroethyl)piperazin-1-yl)ethoxy)-9H-xanthen-3-yl)oxy)pyridin-2-yl)propanamide] | < 100 | > 10000
30 | Cc1cc(OCCN2CCOCC2)c2oc3cc(Oc4ccc(CCC(=O)NC5CCCC5)nc4)ccc3c(=O)c2c1 [Example 56, N-Cyclopentyl-3-[5-({7-methyl-5-[2-(4-morpholinyl)ethoxy]-9-oxo-9H-xanthen-3-yl}oxy)-2-pyridinyl]propanamide] | < 100 | 
31 | Cc1cc(OCCN(C(C)C)C(C)C)c2oc3cc(Oc4ccc(CCC(=O)NC5CCCC5)nc4)ccc3c(=O)c2c1 [Example 57, N-Cyclopentyl-3-[5-({5-[2-(diisopropylamino)ethoxy]-7-methyl-9-oxo-9H-xanthen-3-yl}oxy)-2-pyridinyl]propanamide] | < 100 | 
